In series [1] the target is T1, RXR-VDR heterodimer (Homo sapiens, UniProt P11473).
T1 construct: Add the Gal4-RXR-DEF and VP16-VDR-LBD; expressed in transfected cells; host or cells: SaOS-2 cells
T1 sequence (P11473 127-423 limits assumed): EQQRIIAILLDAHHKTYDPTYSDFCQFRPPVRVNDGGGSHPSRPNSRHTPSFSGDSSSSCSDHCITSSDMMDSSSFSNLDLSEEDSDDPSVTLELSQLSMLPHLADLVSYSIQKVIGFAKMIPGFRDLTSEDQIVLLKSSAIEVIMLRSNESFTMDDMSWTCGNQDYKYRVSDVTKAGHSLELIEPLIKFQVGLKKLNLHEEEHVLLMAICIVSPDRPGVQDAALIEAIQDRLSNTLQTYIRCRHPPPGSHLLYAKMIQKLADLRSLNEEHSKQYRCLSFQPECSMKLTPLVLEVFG
T1 sequence (P19793 201-462 partner limits assumed): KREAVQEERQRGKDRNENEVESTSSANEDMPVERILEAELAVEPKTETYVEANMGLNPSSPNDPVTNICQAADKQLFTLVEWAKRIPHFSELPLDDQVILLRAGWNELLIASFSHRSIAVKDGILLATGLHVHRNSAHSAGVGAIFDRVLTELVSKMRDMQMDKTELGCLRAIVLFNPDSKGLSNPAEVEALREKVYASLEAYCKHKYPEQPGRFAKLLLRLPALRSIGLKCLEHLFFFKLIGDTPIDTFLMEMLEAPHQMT
Put plainly: RXR-VDR heterodimerization assay (SaOS-2 cells). To be noted: Gal4-RXR / VP16-VDR-LBD luciferase reporter, Table 1. Format: cell-based. How it is done: 1. The RXR-VDR HeterodimerAssay:
This assay provides the VDR activity of a test compound.
(1) Materials and Method for RXR-VDR Heterodimerization Assay:
Luciferase Assay Reagent: • Use Steady-Glo Luciferase Reagent from Promega (Cat #E2550) Consists of: a. E2533 Assay Substrate, lyopholized product and b. E2543 Assay Buffer. • Thaw at room temperature • Store Cell Harvesting Aspirate media from culture flask, rinse cells with HBSS and aspirate. Add trypsin and incubate. When cells appear detached, resuspend cells in growth media. Transfer into a new flask with fresh growth media for passaging the cells. Plate well plates and two extra plates A. Cell Count Mix the cell suspension using pipette Use Hematocytometer to count the cells Load cell suspension onto the hemocytometer chamber Count cells. […] In sterile flask add cell suspension to plating media. Mix. Add cells/well. Place the cells in the incubator. Cells should be about 75% confluent prior to transfection. DAY 2: Transfection Step 1: DNA and Media Add plain DMEM media to tubes for mixing the DNA Add the Reporter gene pFR-LUC Add the Gal4-RXR-DEF and VP16-VDR-LBD Step 2: FuGENE and Media Prepare plain DMEM media in a ubes for mixing FuGENE Add FuGENE 6 Transfection Reagent Incubate Step 3: FuGENE, DNA and Media Complex Add FuGENE Media complex from step 2 to DNA Media complex from step 1 Incubate Step 4: FuGENE, DNA and Media Complex to-well plate Add FuGENE-DNA-Media complex from step 3 to each plate Incubate. […] Day 4: Luciferase Assay Read the plates after drug treatment Remove part of media from all the wells and leave remainder Add Steady-Glo Luciferase Reagent mixture/wells Incubate Count each well using a Luminescence counter, Top Count NXT by Packard
Set a delay between plates to reduce the background.
Background: Reporter assays use an easily measured gene product as a stand-in for the process of interest.

In series [2] the test system is DBF mice. Put plainly: Mouse hypercalcemia assay. The following applies: oral gavage for 6 days, serum ionized calcium 6 hours after last dosing; Table 1.
Text: The Mouse Hypercalcemia Assay
The Mouse Hypercalcemia Assay is a six day hypercalcemia test for toxicity and selectivity.
(4) Materials and Method for the Mouse Hypercalcemia Assay:
Weanling, virus-antibody-free, five to six weeks old female DBF mice (Harlan, Indianapolis, Ind.) are used for all the studies. Animals are allowed to acclimate to local vivarium conditions for 2 days. […] The animals then are divided into groups with 4-5 mice per group. Different doses of test compounds prepared in 10% Ethanol and 90% sesame oil are administered to mice orally via gavage for 6 days. 1α-25(OH)2D3 0.5 μg/kg/d was also given to one group of mice as the positive control. […] Raw data of group differences is assessed by analysis of variance (ANOVA) using Fisher's protected least significant difference (PLSD) where the significance level was P<0.05.
The subject of series [3] is rat osteocalcin promoter. The experiment in a line: OCN (osteocalcin) promoter assay. It is filed as cell-based. The following applies: RG-15 (ROS 17/2.8) cells, 48 hr treatment, Table 1. The method, then:
3. The OCN (Osteocalcin) Promoter Assay
The OCN Promoter Assay is an indicator and marker for osteoporosis. […] Preferred assay results are less than 50 nM.
(3) Materials and Method for the OCN Promoter Assay:
The activation of osteocalcin by VDR ligands was evaluated in a rat osteoblast-like cell line RG-15 (ROS 17/2.8) stably expressing rat osteocalcin promoter fused with luciferase reporter gene. […] Confluent RG-15 cells maintained in DMEM/F-12 medium (3:1) containing 5% FBS, 300 μg/ml G418 and at 37° C. under 5% CO2/95% air atmosphere were trypsinized (0.25% trypsin) and plated into white opaque 96-well cell culture plates (25000 cells/well). After 24 hr, cells (in DMEM/F-12 medium+2% FBS) were treated with various concentrations of compounds, dissolved in DMSO. The final DMSO concentration remained at 0.01% (v/v). After 48 hr treatment, the medium was removed, cells were lysed with 50 μl of lysis buffer (From Luciferase reporter assay system, Roche Diagnostics, Indianapolis, Ind.) and assayed for luciferase activity using the Luciferase Reporter Gene Assay kit from Boehringer Mannheim as per manufacturer's specifications.

The subject of series [4] is KERtr cells. The experiment in a line: Keratinocyte proliferation assay. Format: cell-based. The following applies: Homo sapiens. The method, then: 5. The Keratinocyte Proliferation Assay
This Assay is indicative for the treatment of psoriasis.
(5) The Keratinocyte Proliferation Assay:
KERtr cells (Human skin keratinocyte transformed with a retrovirus vector, obtained from ATCC) were plated in 96-well flat-bottomed plates (3000 cells/well) in 100 μl keratinocyte serum free medium supplemented with bovine pituitary extract in the absence of EGF (Life Technologies, Rockville, Md.) and incubated at 37° C. for two days. The cells were treated with various concentrations of VDR ligands (ten-fold serial dilution from 10,000 nM to 0.1 nM in triplicate), dissolved in 100 μl keratinocyte serum free medium supplemented with bovine pituitary extract in the absence of EGF and incubated at 37° C. for 72 hr. […] Potency values (IC50) values were determined as the concentration (nM) of compound that elicited a half-maximal response.

Series [5] has as its target T2, VDR (Homo sapiens, UniProt P11473).
T2 construct: the receptor expression vector pGal4-VDR-LBD (10 ng); expressed in transfected cells; host or cells: Caco-2 cells
T2 sequence (P11473 127-423 limits assumed): T1 sequence (P11473 127-423 limits assumed)
The experiment in a line: Caco-2 cell co-transfection assay (VDR CTF). It is filed as cell-based. To be noted: Caco-2 cells, pGal4-VDR-LBD luciferase co-transfection; Table 1. How it is done: 2. The Caco-2 Cell Co-Transfection Assay:
The Caco-2 cell assay is an indicator for the undesirable condition of hypercalcemia. This co-transfection assay is a surrogate assay for in vivo calcemic activity of VDR ligands. […] Preferred assay results are greater than 1000 nM.
(2) Materials and Method for The Caco-2 Cell Assay:
Caco-2 cells, grown in phenol red free, DMEM (Invitrogen, Carlsbad, Calif.) containing 10% charcoal-stripped FCS (Hyclone, Logan, Utah), were transfected with Fugene 6 reagent (Roche Diagnostics, Indianapolis, Ind.). Cells (5000/well) were plated 18 h before transfection in a 96 well plate. The Cells were transfected with Gal4-responsive reporter pFRLuc (150 ng, Stratagene, La Jolla Calif.) and the receptor expression vector pGal4-VDR-LBD (10 ng), along with Fugene 6 reagent (0.2 μl/well). The DNA-Fugene complex was formed by incubating the mixture for 30 min at room temperature. The cells were transfected in triplicate for 5 h, and treated with various concentrations of VDR ligands (form 0.01 nM to 10,000 nM concentration range) 18 h post-transfection. The luciferase activity was quantified using Steady-Glo reagent kit (Promega, Madison, Wis.) as per manufacturer's specifications.

Series [6] relates to IL-10. Put plainly: Human IL-10 induction assay in PBMCs. Format: cell-based. The following applies: PBMC. The text has this:
6. The IL-10 Induction Assay
This is an in vitro efficacy assay for psoriasis, abscess and adhesion. Psoriasis involves both keratinocytes and immune cells. IL-10 is a unique cytokine because it is anti-inflammatory and immunosuppressive. This assay tells us whether a VDRM is able to function as an agonist in PBMCs ([…]) or not.
(6) Materials and Method for Human IL-10 Induction Assay:
Isolation of Peripheral Blood Mononuclear Cells (PBMCs):
Stimulation of PBMC: • L. Prepare TPA in DMSO. • M. Dissolve PHA in water. • N. Plate TPA/PHA treated PBMCs in well plates. • O. Incubate.
Sample Collection and Assay: • S. Remove all the cells by centrifugation and assay the supernatant for IL-10 by immunoassay. • T. Perform IL-10 assay using anti-human IL-10 antibody coated beads, as described by the manufacturer (Linco Research Inc., St. Charles, Mo.). (8) CaT1 Assay

[7] abbreviates: 72 h, BrdU incorporation, Table 2, read-out: Kera. Prolif. IC50.
The mark [8] stands for this setting: TPA/PHA treated human PBMCs, Table 2.

The values that follow come from patent US7897789B2, “Vitamin D receptor modulators” (Eli Lilly and Company, priority 2003, dated 2011).

The EC50 is the concentration needed to bring the measured effect to its halfway point. A word on the IC50: it is the midpoint of a concentration-inhibition curve.

Several values for one entry are separate records, joined by “and”; a condition that tells them apart may be missing. Identical values can stand only once. Like-named read-outs stand apart in the source and are kept apart here. Where only a bound is given, the exact number is not on record here.

For `CCC(CC)(c1ccc(OCC(=O)C(C)(C)C)c(C)c1)c1ccc2sc(C(=O)NCC(=O)O)cc2c1` [Ex 15, [(5-{1-[4-(3,3-dimethyl-2-oxo-butoxy)-3-methyl-phenyl]-1-ethyl-propyl}-benzo[b]thiophene-2-carbonyl)-amino]-acetic acid], the EC50 in series [1] is 539 nM and 63 nM. Also, the “Mouse Hypercal” value in series [2] was under 1000 µg/kg/day.

For the compound `CCC(CC)(c1ccc(OCC(=O)C(C)(C)C)c(C)c1)c1cc2cc(C(=O)O)ccc2s1` [Ex 17, 2-{1-[4-(3,3-dimethyl-2-oxo-butoxy)-3-methyl-phenyl]-1-ethyl-propyl}-benzo[b]thiophene-5-carboxylic acid], the EC50 is 272 nM and 51 nM in series [1]; 3 nM in series [3]; 4 nM in series [3] (Rattus norvegicus, 48 h); 631 nM in series [5]. Also, the IC50 in series [4] (setting [7]) was determined as 404 nM. Moreover, in series [2], the “Mouse Hypercal” value is over 300 µg/kg/day.

Regarding `CCC(CC)(c1ccc(OCC(O)C(C)(C)C)c(C)c1)c1cc2cc(C(=O)O)ccc2s1` (stereo not drawn) [Ex 18, 2-{1-ethyl-1-[4-(2-hydroxy-3,3-dimethyl-butoxy)-3-methyl-phenyl]-propyl}-benzo[b]thiophene-5-carboxylic acid], the EC50 in series [3] came out at 1.3 nM; in series [3] (Rattus norvegicus, 48 h), 2.4 nM; in series [5], 748 nM. In addition, the values for the IC50 in series [6] (setting [8]) and in series [4] (setting [7]) were 89 nM and 1.8 nM, respectively.

Consider `CCC(CC)(c1ccc(OCC(O)C(C)(C)C)c(C)c1)c1cc2cc(C(=O)NCC(=O)O)ccc2s1` (stereo not drawn) [Ex 20, [(2-{1-Ethyl-1-[4-(2-hydroxy-3,3-dimethyl-butoxy)-3-methyl-phenyl]-propyl}-benzo[b]thiophene-5-carbonyl)-amino]-acetic acid], for which the EC50 in series [1] came to 24 nM; in series [3] (Rattus norvegicus, 48 h), 5 nM; in series [5], 314 nM. The IC50 in series [6] (setting [8]) was 386 nM; in series [4] (setting [7]), 98 nM.

As for `CCC(CC)(c1ccc(OCC(=O)C(C)(C)C)c(C)c1)c1cc2cc(C(=O)N(C)C)ccc2s1` [Ex 21, 2-{1-[4-(3,3-Dimethyl-2-oxo-butoxy)-3-methyl-phenyl]-1-ethyl-propyl}-benzo[b]thiophene-5-carboxylic acid dimethylamide], the EC50 in series [1] is 134 nM and 24 nM; in series [3], 48 nM; in series [3] (Rattus norvegicus, 48 h), 29 nM; in series [5], 708 nM. The IC50 in series [4] (setting [7]) was found to be 162 nM. In addition, in series [2], the “Mouse Hypercal” value was over 1000 µg/kg/day.

On to `CCC(CC)(c1ccc(OCC(=O)C(C)(C)C)c(C)c1)c1ccc2cc(C(=O)N(C)C)sc2c1` [Ex. 3, 6-{1-[4-(3,3-Dimethyl-2-oxo-butoxy)-3-methyl-phenyl]-1-ethyl-propyl}-benzo[b]thiophene-2-carboxylic acid dimethylamide], for which the EC50 in series [1] was 442 nM and 67 nM; in series [5], 869 nM. Moreover, the IC50 in series [6] (setting [8]) is 351 nM; in series [4] (setting [7]), over 1000 nM.

For `CCC(CC)(c1ccc(OCC(O)C(C)(C)C)c(C)c1)c1ccc2cc(C(=O)NCC(=O)O)sc2c1` (stereo not drawn) [Ex. 6, [(6-{1-ethyl-1-[4-(2-hydroxy-3,3-dimethyl-butoxy)-3-methyl-phenyl]-propyl}-benzo[b]thiophene-2-carbonyl)-amino]-acetic acid], the IC50 in series [6] (setting [8]) and in series [4] (setting [7]) was 4 nM each time. This compound came in with an EC50 in series [5] of 331 nM.

Consider `CCC(CC)(c1ccc(OCC(O)C(C)(C)C)c(C)c1)c1cc2ccc(C(=O)O)cc2s1` (stereo not drawn) [Ex. 8, 2-{1-Ethyl-1-[4-(2-hydroxy-3,3-dimethyl-butoxy)-3-methyl-phenyl]-propyl}-benzo[b]thiophene-6-carboxylic acid], for which the IC50 in series [6] (setting [8]) came out at 15 nM; in series [4] (setting [7]) it was 1 nM. Further, in series [5], the EC50 came to 409 nM.

`CCC(CC)(c1ccc(OCC(=O)C(C)(C)C)c(C)c1)c1ccc2sc(C(=O)O)cc2c1` [Ex. 13, 5-{1-[4-(3,3-dimethyl-2-oxo-butoxy)-3-methyl-phenyl]-1-ethyl-propyl}-benzo[b]thiophene-2-carboxylic acid]: the EC50 in series [1] was 488 nM and 111 nM; in series [5] it was 994 nM. Also, the “Mouse Hypercal” value in series [2] is over 300 µg/kg/day.

`C=C1/C(=C\C=C2/CCC[C@]3(C)[C@@H]([C@H](C)/C=C/[C@@H](O)C4CC4)CC[C@@H]23)C[C@@H](O)C[C@@H]1O` [FF, calcipotriol, reference compound]: the IC50 in series [6] (human PBMCs, comparison compounds, Table 4) amounted to 0.5 nM; in series [4] (comparison compounds, Table 4, read-out: Kera. Prolif. IC50), 103 nM.
